US5534495A, “Treatment of non-HIV neuropathic pain syndromes” (Advanced Peptides and Biotechnology Sciences, priority 1995, dated 1996)

Key:
[1] = tested on: dissociated hippocampal and/or cortical neurons; assay: Neuronal survival assay in vitro (5-day exposure); assay type: cell-based, rat
Method: (§1) The neuroprotective and neurotropic actions of the herein defined peptides were determined by their effects upon fetal rodent neuronal cultures. […] The dissociated cells were be plated at low density (50,000 cells/35-mm dish) upon confluent layers of astrocytes. The astrocyte feeder layers were prepared from the hippocampi and/or cortices of 2-day-old rat pups. Following treatment with 0,125% trypsin for 15 min, the tissue was triturated and plated at 2.5×10^5 cells into 35-mm tissue culture dishes coated with Vintrogen (Collagen, Palo Alto) and poly-L-lysine (M1 30-70K 10^-5 M borate, pH 8.4, Sigma). The resulting feeder layers were grown in Eagle's minimal essential medium (MEM, formula 82-0234, Gibco) with 10% fetal bovine serum until confluent (12-14 days); feeder layers prepared in this way were devoid of neurons and consisted predominantly of flat cells that were stained by antibodies to glia fibrillary acidic protein. When hippocampal and/or cortical neurons were added to the confluent feeder cultures, the medium was changed to 94% MEM, 5% horse serum (Gibco) and an added nutrient supplement containing insulin, transferrin, putrescine, selenium, corticosterone, progesterone and triiodothyronine. The resulting mixed neuron/glia cultures are treated one day after plating with 5'-fluoro-2'-deoxyuridine (15 μg/ml plus uridine, 35Mg/ml) to suppress the overgrowth of background cells. The neuronal cultures were allowed to grow for one week prior to the beginning of the experimental period and the medium was changed prior to adding peptides or controls.
The test period of exposure to peptides was five days long, a period in which cell survivability can be accurately quantitated. […] Neurons were counted in 100 fields at predetermined stage coordinates. Cultures were coded and counted in a blinded fashion without knowledge of sample treatment. The total area counted was 50 mm^2. […] The maximum effect was detected at 0.1 nM, with approximately a 25% increase in cell survival compared to vehicle (Control) treated cultures.

[2] = tested on: hippocampal neuronal cells; assay: Twenty one day survival of hippocampal neuronal cell cultures; assay type: cell-based, rat; details: 0.1 nM
Method: as §1, with “The resulting mixed neuron/glia cultures are treated one day after plating with 5'-fluoro-2'-deoxyuridine (15 μg/ml plus uridine, 35Mg/ml) to suppress the overgrowth of background cells. The neuronal cultures were allowed to grow for one week prior to the beginning of the experimental period and the medium was changed prior to adding peptides or controls.” left out

C[C@@H](N)C(=O)N[C@@H](CO)C(=O)N[C@H](C(=O)N[C@H](C(=O)N[C@H](C(=O)N[C@@H](CC(N)=O)C(=O)N[C@@H](Cc1ccc(O)cc1)C(=O)N[C@H](C(N)=O)[C@@H](C)O)[C@@H](C)O)[C@@H](C)O)[C@@H](C)O [DAPTA]
effect on neuronal survival (neuronal cell count as percentage of Control) ([1]; 7-day-old neuronal cultures, five days exposure, vs vehicle control, FIG. 1): caused an increase in neuronal survival
increase in cell survival compared to vehicle (Control) treated cultures ([1]; at 0.1 nM (maximum effect), five days): ~25%
concentration of maximum effect on neuronal survival ([1]; five days exposure, FIG. 1): 0.1 nM
increase in cell survival compared to vehicle treated cultures ([2]; after twenty one days, FIG. 2): 4 fold
cell survival rate over the test period ([2]; at all times during the twenty one day test period, vs vehicle): enhanced
